Experimental data reported in article PMC10803253, “Structural insights into the iron nitrogenase complex” (Nature Structural & Molecular Biology, 2023).

Legend:
[1] = target: T1, Fe nitrogenase catalytic component, AnfD FeFeco site, in the Anf(DGK)2(H2)2 complex (Rhodobacter capsulatus, UniProt D5ANJ7); assay: cryo-EM structure ([…] Å); format: binding; details: bidentate ligand of FeFeco iron Fe8 via 2-hydroxyl and 2-carboxyl; co-purified; ADP·AlF3-trapped complex
T1 construct: C-terminal Strep-tag II on AnfD, N-terminal His6-tag on AnfH, no linkers; plasmid expression in R. capsulatus MM0436; AlF3-trapped Anf(DGK)2(H2)2; with Nitrogenase iron-iron protein beta chain; Nitrogenase iron-iron protein delta chain; Nitrogenase iron protein (iron-iron nitrogenase reductase)
T1 sequence (D5ANJ9 entry or part of it): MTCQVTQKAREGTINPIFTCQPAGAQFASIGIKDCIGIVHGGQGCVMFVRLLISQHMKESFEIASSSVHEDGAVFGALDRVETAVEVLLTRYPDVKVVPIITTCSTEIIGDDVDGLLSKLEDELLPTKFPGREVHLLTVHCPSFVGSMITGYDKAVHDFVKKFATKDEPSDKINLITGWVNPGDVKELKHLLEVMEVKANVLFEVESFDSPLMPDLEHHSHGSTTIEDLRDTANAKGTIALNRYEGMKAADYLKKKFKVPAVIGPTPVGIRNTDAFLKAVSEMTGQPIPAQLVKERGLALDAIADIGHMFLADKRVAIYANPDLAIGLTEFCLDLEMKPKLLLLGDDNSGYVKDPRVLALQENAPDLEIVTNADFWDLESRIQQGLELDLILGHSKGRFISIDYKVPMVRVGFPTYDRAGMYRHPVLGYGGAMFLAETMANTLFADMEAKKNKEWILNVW
T1 sequence (D5ANJ6 entry or part of it, further chain): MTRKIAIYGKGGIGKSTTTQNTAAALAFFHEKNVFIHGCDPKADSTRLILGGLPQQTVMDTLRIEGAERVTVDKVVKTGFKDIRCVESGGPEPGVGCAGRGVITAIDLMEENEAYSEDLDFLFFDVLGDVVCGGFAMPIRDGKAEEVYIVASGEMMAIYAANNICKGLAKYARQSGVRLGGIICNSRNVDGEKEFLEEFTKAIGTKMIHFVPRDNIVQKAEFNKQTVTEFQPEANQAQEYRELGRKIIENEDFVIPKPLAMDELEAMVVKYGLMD
T1 sequence (D5ANJ7 entry or part of it): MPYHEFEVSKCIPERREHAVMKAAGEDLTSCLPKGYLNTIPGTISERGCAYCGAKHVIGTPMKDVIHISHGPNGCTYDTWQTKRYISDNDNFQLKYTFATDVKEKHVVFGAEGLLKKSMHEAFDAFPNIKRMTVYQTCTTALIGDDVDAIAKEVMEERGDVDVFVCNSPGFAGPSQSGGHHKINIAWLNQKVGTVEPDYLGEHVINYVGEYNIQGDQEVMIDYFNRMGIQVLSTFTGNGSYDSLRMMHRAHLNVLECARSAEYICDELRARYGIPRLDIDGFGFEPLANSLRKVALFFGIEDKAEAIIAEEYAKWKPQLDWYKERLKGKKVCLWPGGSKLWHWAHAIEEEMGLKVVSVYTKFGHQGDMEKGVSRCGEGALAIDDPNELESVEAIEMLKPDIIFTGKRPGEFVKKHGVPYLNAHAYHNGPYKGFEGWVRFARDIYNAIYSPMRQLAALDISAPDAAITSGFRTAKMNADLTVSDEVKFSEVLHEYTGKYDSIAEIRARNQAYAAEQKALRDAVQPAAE
T1 sequence (D5ANJ8 entry or part of it, further chain): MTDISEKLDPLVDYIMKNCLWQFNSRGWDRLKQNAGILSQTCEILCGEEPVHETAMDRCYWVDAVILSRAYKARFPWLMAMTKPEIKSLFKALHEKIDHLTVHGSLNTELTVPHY

[2] = target: T2, Fe nitrogenase reductase component AnfH2 in the Anf(DGK)2(H2)2 complex (Rhodobacter capsulatus, UniProt D5ANJ6); assay: cryo-EM structure ([…] Å); format: binding; details: covalent (Cys97 and Cys132 of two AnfH subunits); co-purified
T2 construct: gene anfH; N-terminal His6-tag on AnfH, C-terminal Strep-tag II on AnfD, no linkers; plasmid expression in R. capsulatus MM0436; AlF3-trapped Anf(DGK)2(H2)2, ~360 kDa by mass photometry; with Nitrogenase iron-iron protein alpha chain; Nitrogenase iron-iron protein beta chain; Nitrogenase iron-iron protein delta chain
T2 sequence (D5ANJ6 1-275): as the sequence (D5ANJ6 entry or part of it, further chain) above
T2 sequence (D5ANJ7 1-527 partner): as the sequence (D5ANJ7 entry or part of it) above
T2 sequence (D5ANJ9 1-460 partner): as the sequence (D5ANJ9 entry or part of it) above
T2 sequence (D5ANJ8 1-115 partner): as the sequence (D5ANJ8 entry or part of it, further chain) above

O=C(O)CC[C@@](O)(CC(=O)O)C(=O)O [(R)-homocitrate]
cryo-EM structure (2.35 Å) [1]: additionally coordinated by a bidentate (R)-homocitrate ligand that binds the iron atom

[S]12[Fe]3[S]4[Fe]1[S]1[Fe]2[S]3[Fe]41 [[Fe4S4] cluster]
cryo-EM structure (2.35 Å) [2]: we observed an [Fe4S4] cluster coordinated by Cys97 and Cys132
